Laboratory results published in ChEMBL document CHEMBL1134062, “Spirocyclic nonpeptide glycoprotein IIb-IIIa antagonists. Part 2: design of potent antagonists containing the 3-azaspiro[5.5]undecanes” (Bioorg Med Chem Lett, 2001).

Experiments:
[1] = target: Integrin alpha-IIb/beta-3 (Homo sapiens, UniProt P05106+P08514); experiment: In vitro inhibitory activity against blockage of binding of fibrinogen to purified human GPIIbIIIa; type: protein-complex assay
[2] = species on record: Homo sapiens; experiment: In vitro ability to inhibit the aggregation of ADP-stimulated human platelets; type: functional

Integrin alpha-IIb/beta-3, sequence (P05106 27-788 limits assumed): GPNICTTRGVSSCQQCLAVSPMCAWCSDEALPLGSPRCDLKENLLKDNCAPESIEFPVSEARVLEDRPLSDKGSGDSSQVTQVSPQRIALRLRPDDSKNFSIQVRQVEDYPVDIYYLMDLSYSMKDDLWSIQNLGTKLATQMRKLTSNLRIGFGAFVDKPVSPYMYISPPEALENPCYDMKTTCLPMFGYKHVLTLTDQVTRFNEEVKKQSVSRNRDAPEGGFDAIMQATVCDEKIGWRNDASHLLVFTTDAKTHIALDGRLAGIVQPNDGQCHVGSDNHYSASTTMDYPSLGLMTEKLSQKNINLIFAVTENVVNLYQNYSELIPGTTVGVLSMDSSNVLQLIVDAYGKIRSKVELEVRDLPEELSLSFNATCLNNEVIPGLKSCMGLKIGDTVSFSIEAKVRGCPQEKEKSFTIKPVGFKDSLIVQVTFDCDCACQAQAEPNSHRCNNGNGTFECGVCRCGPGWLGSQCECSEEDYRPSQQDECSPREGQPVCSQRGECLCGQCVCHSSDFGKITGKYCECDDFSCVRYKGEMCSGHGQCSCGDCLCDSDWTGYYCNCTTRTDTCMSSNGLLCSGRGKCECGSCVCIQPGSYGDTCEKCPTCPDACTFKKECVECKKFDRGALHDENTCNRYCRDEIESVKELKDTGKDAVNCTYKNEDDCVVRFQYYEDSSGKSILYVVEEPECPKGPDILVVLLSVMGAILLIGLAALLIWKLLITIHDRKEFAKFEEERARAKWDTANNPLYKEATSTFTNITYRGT
Integrin alpha-IIb/beta-3, sequence (P08514 32-887 limits assumed): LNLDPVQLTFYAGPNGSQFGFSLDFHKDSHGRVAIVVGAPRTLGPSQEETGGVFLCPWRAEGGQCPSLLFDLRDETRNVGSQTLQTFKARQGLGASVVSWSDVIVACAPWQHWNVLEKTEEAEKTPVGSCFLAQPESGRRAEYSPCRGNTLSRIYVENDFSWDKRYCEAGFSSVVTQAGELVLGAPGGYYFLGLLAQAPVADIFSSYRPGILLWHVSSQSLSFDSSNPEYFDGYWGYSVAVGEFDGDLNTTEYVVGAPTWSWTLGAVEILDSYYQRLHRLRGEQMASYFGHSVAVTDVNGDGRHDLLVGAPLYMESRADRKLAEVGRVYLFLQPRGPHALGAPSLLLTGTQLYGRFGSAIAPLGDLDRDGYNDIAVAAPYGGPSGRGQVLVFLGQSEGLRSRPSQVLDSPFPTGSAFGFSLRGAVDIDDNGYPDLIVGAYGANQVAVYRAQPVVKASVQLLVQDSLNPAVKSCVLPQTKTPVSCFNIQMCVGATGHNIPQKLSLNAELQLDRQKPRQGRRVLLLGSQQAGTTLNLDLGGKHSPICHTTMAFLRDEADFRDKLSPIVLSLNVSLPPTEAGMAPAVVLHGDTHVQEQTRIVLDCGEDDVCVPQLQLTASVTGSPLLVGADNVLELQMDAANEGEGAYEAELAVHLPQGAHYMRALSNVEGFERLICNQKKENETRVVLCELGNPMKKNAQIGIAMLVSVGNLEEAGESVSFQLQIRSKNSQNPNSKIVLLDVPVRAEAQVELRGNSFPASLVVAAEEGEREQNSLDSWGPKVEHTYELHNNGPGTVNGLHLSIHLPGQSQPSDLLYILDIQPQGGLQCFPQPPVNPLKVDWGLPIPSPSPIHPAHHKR
Integrin alpha-IIb/beta-3, sequence (P08514 891-1039 limits assumed): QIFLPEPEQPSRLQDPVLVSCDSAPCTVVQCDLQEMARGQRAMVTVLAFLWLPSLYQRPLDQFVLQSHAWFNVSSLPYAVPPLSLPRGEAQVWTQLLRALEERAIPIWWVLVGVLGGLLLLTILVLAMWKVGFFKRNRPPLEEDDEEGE

SMILES	IC50 [1] [nM]	IC50 [2] [nM]
CCCCOC(=O)N[C@@H](CNC(=O)C1CCC2(CC1)CCN(c1ccncc1)CC2)C(=O)O	8	1300
Cc1noc(C)c1S(=O)(=O)N[C@@H](CNC(=O)C1CCC2(CC1)CCN(c1ccncc1)CC2)C(=O)O	–	40
CCCCS(=O)(=O)N[C@@H](CNC(=O)C1CCC2(CC1)CCN(c1ccncc1)CC2)C(=O)O	–	179
O=C(O)CCC(=O)N1CCC2(CCC(C(=O)N3CCC(C4CCNCC4)CC3)CC2)CC1	100000	50000
O=C(N[C@@H](CNC(=O)C1CCC2(CC1)CCN(c1ccncc1)CC2)C(=O)O)OCc1ccccc1	2	2700
N[C@@H](CNC(=O)C1CCC2(CC1)CCN(c1ccncc1)CC2)C(=O)O	830	12200
O=C(O)CN1CCC2(CCC(C(=O)N3CCC(C4CCNCC4)CC3)CC2)CC1	250	289
N=C(N)c1ccc(C(=O)N2CCC3(CCC(C(=O)NCC(=O)O)CC3)CC2)cc1	–	38500
CC(CNC(=O)C1CCC2(CC1)CCN(c1ccncc1)CC2)CC(=O)O (stereo not drawn)	332	4000
N=C(N)c1ccc(C(=O)N2CCC3(CCC(C(=O)O)CC3)CC2)cc1	15000	19700
O=C(O)CCCNC(=O)C1CCC2(CC1)CCN(c1ccncc1)CC2	319	12000
N=C(N)c1ccc(N2CCC3(CCC(C(=O)NCCCC(=O)O)CC3)CC2)cc1	5000	37100
O=C(O)CCCC(=O)N1CCC2(CCC(C(=O)N3CCC(C4CCNCC4)CC3)CC2)CC1	100000	50000
O=C(O)CNC1CCC2(CC1)CCN(c1ccncc1)CC2	160	890
O=C(O)CN1CCC2(CCC(C(=O)N3CCN(c4ccncc4)CC3)CC2)CC1	364	117
C[C@@H](CC(=O)O)NC(=O)C1CCC2(CC1)CCN(c1ccncc1)CC2	616	14300
O=C(O)CCN1CCC2(CCC(C(=O)N3CCN(c4ccncc4)CC3)CC2)CC1	3450	7900
N=C(N)c1ccc(N2CCC3(CCC(C(=O)NCCC(=O)O)CC3)CC2)cc1	60	5500
O=C(O)COC1CCC2(CC1)CCN(c1ccncc1)CC2	250	1100
O=C(O)CCNC1CCC2(CC1)CCN(c1ccncc1)CC2	–	4500
Cc1ccc(S(=O)(=O)N[C@@H](CNC(=O)C2CCC3(CC2)CCN(c2ccncc2)CC3)C(=O)O)cc1	–	177
O=C(O)C[C@@H](NC(=O)C1CCC2(CC1)CCN(c1ccncc1)CC2)c1ccccc1	–	77000
